Laboratory results taken from US20070135470A1, “Utilization of vinpocetine to avoid complications in particular those associated to hearing which occur with epilepsy, and treatment thereof” (UNIVERSIDAD NACIONAL AUTONOMA DE MEXICO, priority 2003, published 2007).

What was measured:
humans = settings: doses as high as 60 mg/day; Hindmarch et al. 1991; cited from earlier work
[1] = test system: hearing loss induced by 4-AP in guinea pigs; assay: ABR (auditory) threshold in 4-AP-induced epilepsy; format: in vivo, guinea pig
Experimental: (§1) Experiments were performed in pigmented adult male guinea pigs initially weighing 349±38 g. ABRs recordings were used to evaluate the hearing status of each animal and EEG recordings to evaluate changes in cortical excitability. The ABR and EEG recordings were obtained following a method that we have previously reported (Nekrassov and Sitges, 2003). The Institutional Animal Use and Care Committee approved all experimental procedures.
(§2) Three types of recordings were performed in the anaesthetized animals, namely the ABR recordings elicited by a stimulus of high intensity (100 dB), the ABR recordings for determination of the auditory threshold and the EEG recordings.
(§3) Determination of ABR thresholds. ABR recordings elicited by stimuli of progressively lower intensity (in dB) were used for determining the hearing threshold. Threshold is defined as the lowest stimulus intensity (in dB) at which the P3 wave of the ABR could still be recorded in three consecutive trials.
(§4) Student's t-test was used for the evaluation of the differences between results obtained before and at the specified times after the injection of the convulsing agents. The criterion for statistical significance for all measures was P≦0.05. All data are expressed as means±standard error of the mean. In figures and tables the symbol * is used for indicating statistic significant differences.
(§5) Five guinea pigs were entered into the study. One hour after injecting guinea pigs with vehicle (acidified saline used to dissolve vinpocetine) the animals were anaesthetized and a first set of ABR and EEG recordings was taken before the injection (i.p) of the convulsing agent, 4-AP. The animals were injected with 4-AP (2 mg/kg) and about 20 min after injecting 4-AP (ictal period) the EEG recording was taken. Then the other series of ABR and EEG recordings were taken at specific times within the post-ictal period. After two weeks the same series of recordings were repeated but instead vehicle the animals were injected with vinpocetine (2 mg/kg) 1 hour before the injection of 4-AP.

[2] = test system: epilepsy induced by 4-AP in guinea pigs; assay: ABR wave parameters (amplitude, latency) in 4-AP-induced epilepsy; format: in vivo, guinea pig; settings: 100 dB
Experimental: as §1, §2
(§6) Determination of ABR wave parameters. The latency and amplitude of each wave component of the ABR elicited by a stimulus of 100 dB with pure tone frequencies of 4 and 8 kHz was measured in all the ABR recordings obtained under the different experimental conditions at the specified times. The latency of each ABR wave (in ms) refers to the time interval between the onset of the auditory stimulus and the positive peak of the wave. The onset of the stimulus is indicated by the vertical arrow at the bottom of the recordings on FIG. 1. The peak amplitude (in μV) of each wave of the ABR is the difference between the positive peak of the wave and the reference baseline (trace between the stimulus and the appearance of the first ABR wave on FIG. 1).
as §4, §5

[3] = test system: epileptic cortical activity induced by PTZ in guinea pigs; assay: EEG recordings of cortical activity in PTZ-induced epilepsy; format: in vivo, guinea pig; settings: ictal (about 2 min) and post-ictal (10, 20, 30, 50 min) periods; vinpocetine 2 mg/kg 4 h before PTZ; FIGS. 3, 4
Experimental: as §1, §2
(§7) Eight male guinea pigs were entered into this study. PTZ was dissolved in saline and vinpocetine in a saline acidified (with HCl) adjusted to pH 4 (with NaOH). Four hours after injecting guinea pigs with vehicle (acidified saline used to dissolve vinpocetine) the animals were anaesthetized and a first set of ABR and EEG recordings was taken before the injection (i.p) of the convulsing agent, PTZ. The animals were injected with PTZ (100 mg/kg) and about 2 min after injecting PTZ (ictal period) the EEG recording was taken. Then the other series of ABR and EEG recordings were taken at specific times within the post-ictal period. After two weeks the same series of recordings was taken but instead vehicle the animals were injected with vinpocetine (2 mg/kg) 4 hours before the injection of PTZ.
Vinpocetine inhibits all the changes induced by PTZ on the EEG. […] This dramatic change on the cortical activity induced by PTZ in the anaesthetized animals during convulsions is followed by a typical pattern of cortical activity characterized by rhythmic spike bursts of high amplitude. The duration time of this typical pattern of cortical activity, that is not accompanied by convulsions is referred as the post-ictal period.

[4] = test system: epilepsy induced by PTZ in guinea pigs; assay: ABR wave parameters (amplitude, latency) in PTZ-induced epilepsy; format: in vivo, guinea pig; settings: 100 dB
Experimental: as §1, §2, §6, §4, §7

[5] = test system: hearing loss induced by PTZ in guinea pigs; assay: ABR (auditory) threshold in PTZ-induced epilepsy; format: in vivo, guinea pig
Experimental: as §1, §2, §3, §4, §7

[6] = test system: epileptic cortical activity induced by 4-AP in guinea pigs; assay: EEG recordings of cortical activity in 4-AP-induced epilepsy; format: in vivo, guinea pig; settings: ictal (about 20 min) and post-ictal (30, 60, 80 min) periods; vinpocetine 2 mg/kg 1 h before 4-AP; FIGS. 6, 7
Experimental: as §1, §2, §5
Vinpocetine inhibits all the changes induced by 4-AP on the EEG. […] This change on the cortical activity elicited by 4-AP for the ictal period is followed by the post-ictal period characterized by isolated spikes of higher amplitude that appear on the EEG about one hour after the injection of 4-AP. […] The top traces of FIG. 6 show the characteristic EEG recordings taken before the injection of 4-AP in the animals pre-injected with vehicle (a) and in the animals pre-injected with vinpocetine (b). The changes induced by 4-AP on for the ictal period are shown in the second trace on FIG. 6a. In the vinpocetine treated animals 4-AP was unable to induce the ictal activity (second trace on FIG. 6b).

[7] = 4 kHz, 30 min after 4-AP 2 mg/kg i.p., vinpocetine 2 mg/kg or vehicle 1 h before 4-AP
[8] = 4 kHz, 60 min after 4-AP 2 mg/kg i.p., vinpocetine 2 mg/kg or vehicle 1 h before 4-AP
[9] = 8 kHz, 30 min after 4-AP 2 mg/kg i.p., vinpocetine 2 mg/kg or vehicle 1 h before 4-AP
[10] = 8 kHz, 60 min after 4-AP 2 mg/kg i.p., vinpocetine 2 mg/kg or vehicle 1 h before 4-AP
[11] = 4 kHz, 30 min after PTZ 100 mg/kg i.p., vinpocetine 2 mg/kg or vehicle 4 h before PTZ
[12] = 4 kHz, 50 min after PTZ 100 mg/kg i.p., vinpocetine 2 mg/kg or vehicle 4 h before PTZ
[13] = 4 kHz, before PTZ injection, 4 h after vinpocetine 2 mg/kg, mean±SEM, 8 animals
[14] = 8 kHz, 30 min after PTZ 100 mg/kg i.p., vinpocetine 2 mg/kg or vehicle 4 h before PTZ
[15] = 8 kHz, 50 min after PTZ 100 mg/kg i.p., vinpocetine 2 mg/kg or vehicle 4 h before PTZ
[16] = 8 kHz, before PTZ injection, 4 h after vinpocetine 2 mg/kg, mean±SEM, 8 animals

For CCOC(=O)C1=C[C@]2(CC)CCCN3CCc4c(n1c1ccccc41)[C@@H]32 [Vinpocetine, ethyl apovincamine-22-oate], the tolerability in humans (humans) is listed as “well tolerated and without contraindications”, the auditory threshold [1, 7] is listed as 11.3 ± 1.3 dB and the auditory threshold [1, 8] is listed as 11.3 ± 1.3 dB. For the same compound, the auditory threshold ([1]; 4 kHz, before 4-AP injection, 1 h after vinpocetine 2 mg/kg) was 13.8 ± 1.3 dB, the auditory threshold [1, 9] was −1.3 ± 2.4 dB and the auditory threshold [1, 10] was 0.0 ± 3.5 dB. For the same compound, the auditory threshold ([1]; 8 kHz, before 4-AP injection, 1 h after vinpocetine 2 mg/kg) was 2.5 ± 1.4 dB, the “latency of the P4 wave of the ABR” value [2, 7] was 3.37 ± 0.06 ms and the “latency of the P4 wave of the ABR” value [2, 8] was 3.54 ± 0.11 ms. The “latency of the P4 wave of the ABR” value ([2]; 4 kHz, 80 min after 4-AP 2 mg/kg i.p., vinpocetine 2 mg/kg or vehicle 1 h before 4-AP) was 3.56 ± 0.04 ms, the “latency of the P4 wave of the ABR” value ([2]; 4 kHz, 100 min after 4-AP 2 mg/kg i.p., vinpocetine 2 mg/kg or vehicle 1 h before 4-AP) was 3.43 ± 0.09 ms and the “latency of the P4 wave of the ABR” value ([2]; 4 kHz, before 4-AP injection, 1 h after vinpocetine 2 mg/kg, 5 animals) was 3.45 ± 0.06 ms. For the same compound, the “latency of the P4 wave of the ABR” value [2, 9] was 3.55 ± 0.07 ms, the “latency of the P4 wave of the ABR” value [2, 10] was 3.45 ± 0.08 ms and the “latency of the P4 wave of the ABR” value ([2]; 8 kHz, 80 min after 4-AP 2 mg/kg i.p., vinpocetine 2 mg/kg or vehicle 1 h before 4-AP) was 3.36 ± 0.05 ms. For the same compound, the “latency of the P4 wave of the ABR” value ([2]; 8 kHz, 100 min after 4-AP 2 mg/kg i.p., vinpocetine 2 mg/kg or vehicle 1 h before 4-AP) was 3.35 ± 0.07 ms, the “latency of the P4 wave of the ABR” value ([2]; 8 kHz, before 4-AP injection, 1 h after vinpocetine 2 mg/kg, 5 animals) was 3.48 ± 0.04 ms and the “progressive increase in the amplitude of the P3 wave of the ABR produced by 4-AP” value ([2]; 8 kHz, vinpocetine 2 mg/kg 1 h before 4-AP, FIG. 5a,b) was “eliminated”. For the same compound, the “reduction in P4 amplitude produced by 4-AP” value ([2]; 8 kHz, vinpocetine 2 mg/kg 1 h before 4-AP, FIG. 5c,d) was “markedly reduced”, the “effect on changes on the cortical activity (EEG) induced by PTZ” value [3] was “completely inhibits” and the “effect on the increase in latencies of the ABR waves P2, P3 and P4 produced by PTZ” value ([4]; 4 and 8 kHz, vinpocetine 2 mg/kg 4 h before PTZ, FIG. 2) was “inhibits the increase”. The “P4 wave peak amplitude of the ABR” value ([4]; 4 kHz, 10 min after PTZ 100 mg/kg i.p., vinpocetine 2 mg/kg or vehicle 4 h before PTZ) was 2.55 ± 0.3 μV, the “P4 wave peak amplitude of the ABR” value ([4]; 4 kHz, 20 min after PTZ 100 mg/kg i.p., vinpocetine 2 mg/kg or vehicle 4 h before PTZ) was 2.52 ± 0.2 μV and the “P4 wave peak amplitude of the ABR” value [4, 11] was 2.55 ± 0.2 μV. The “P4 wave peak amplitude of the ABR” value [4, 12] was 2.52 ± 0.2 μV, the “P4 wave peak amplitude of the ABR” value [4, 13] was 2.82 ± 0.3 μV and the “P4 wave peak amplitude of the ABR” value ([4]; 8 kHz, 10 min after PTZ 100 mg/kg i.p., vinpocetine 2 mg/kg or vehicle 4 h before PTZ) was 2.56 ± 0.1 μV. The “P4 wave peak amplitude of the ABR” value ([4]; 8 kHz, 20 min after PTZ 100 mg/kg i.p., vinpocetine 2 mg/kg or vehicle 4 h before PTZ) was 2.71 ± 0.2 μV, the “P4 wave peak amplitude of the ABR” value [4, 14] was 2.55 ± 0.2 μV and the “P4 wave peak amplitude of the ABR” value [4, 15] was 2.56 ± 0.1 μV. For the same compound, the “P4 wave peak amplitude of the ABR” value [4, 16] was 2.69 ± 0.1 μV, the auditory threshold [5, 11] was 18 ± 1.2 dB and the auditory threshold [5, 12] was 18 ± 1.2 dB. The auditory threshold [5, 13] was 20 ± 1.6 dB, the auditory threshold [5, 14] was 6.0 ± 1.0 dB and the auditory threshold [5, 15] was 6.0 ± 1.0 dB. For the same compound, the auditory threshold [5, 16] was 6.0 ± 1.0 dB and the “effect on changes on the cortical activity (EEG) induced by 4-AP” value [6] was “completely prevents”.
